{
  "source": "ChEMBL document CHEMBL4602617",
  "about": "“Discovery and optimization of heteroaryl piperazines as potent and selective PI3Kδ inhibitors” (Bioorg Med Chem Lett, 2020)",
  "key": {"[1]": {"biological_target": "Vasopressin V1a receptor (Homo sapiens) (UniProt P37288)", "sequence (P37288 whole entry, looked up)": "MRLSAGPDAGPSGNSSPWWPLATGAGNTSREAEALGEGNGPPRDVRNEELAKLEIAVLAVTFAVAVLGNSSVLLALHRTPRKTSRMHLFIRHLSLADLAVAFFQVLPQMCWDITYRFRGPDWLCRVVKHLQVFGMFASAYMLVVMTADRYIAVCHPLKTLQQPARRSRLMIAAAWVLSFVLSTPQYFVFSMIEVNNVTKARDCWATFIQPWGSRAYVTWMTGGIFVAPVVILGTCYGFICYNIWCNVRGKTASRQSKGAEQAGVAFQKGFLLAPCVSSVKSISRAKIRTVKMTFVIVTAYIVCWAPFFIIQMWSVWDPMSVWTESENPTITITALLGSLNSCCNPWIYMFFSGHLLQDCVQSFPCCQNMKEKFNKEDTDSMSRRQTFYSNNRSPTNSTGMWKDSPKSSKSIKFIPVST", "assay": "Displacement of [125I]phenylacetylTyr(Me)PheGlnAsnArgProArgTyr from recombinant full length human V1A receptor expressed in HEK293 cells at 10 uM after 120 mins by radiometric scintillation analysis relative to control", "assay_type": "cell-based"}, "Rattus norvegicus": {"species_on_record": "Rattus norvegicus", "assay": "Displacement of [3H]GABA from Wistar rat brain GABA at 10 uM after 20 mins by radiometric scintillation analysis relative to control"}, "[2]": {"biological_target": "Tyrosine-protein kinase ABL1 (Homo sapiens, UniProt P00519)", "assay": "Inhibition of recombinant full length human His-tagged ABL1 cytoplasmic domain expressed in baculovirus expression system using tyrosine-2 peptide as substrate incubated for 60 mins in presence of ATP by Z'-LYTE assay"}, "Angiopoietin-1 receptor": {"biological_target": "Angiopoietin-1 receptor (Homo sapiens, UniProt Q02763)", "assay": "Inhibition of recombinant human GST-tagged TIE2 (817 to 1101 residues) expressed in baculovirus expression system using tyrosine-5 peptide as substrate incubated for 60 mins in presence of ATP by Z'-LYTE assay"}, "Cytochrome P450 3A4": {"biological_target": "Cytochrome P450 3A4 (Homo sapiens, UniProt P08684)", "assay": "Inhibition of CYP3A4 (unknown origin)", "assay_type": "ADME"}, "[3]": {"biological_target": "Glycogen synthase kinase-3 alpha (Homo sapiens, UniProt P49840)", "assay": "Inhibition of recombinant full length GST-tagged human GSK3alpha expressed in baculovirus expression system using Ser/Thr 09 peptide as substrate after 1 hr in presence of ATP by Z'LYTE assay"}, "[4]": {"biological_target": "Serine/threonine-protein kinase B-raf (Homo sapiens, UniProt P15056)", "assay": "Inhibition of recombinant full length human GST-tagged BRAF expressed in baculovirus expression system using tyrosine-1 peptide as substrate incubated for 60 mins in presence of ATP by Z'-LYTE assay"}, "[5]": {"biological_target": "Serine/threonine-protein kinase MRCK alpha (Homo sapiens, UniProt Q5VT25)", "sequence (Q5VT25 whole entry, the tested form may be a part)": "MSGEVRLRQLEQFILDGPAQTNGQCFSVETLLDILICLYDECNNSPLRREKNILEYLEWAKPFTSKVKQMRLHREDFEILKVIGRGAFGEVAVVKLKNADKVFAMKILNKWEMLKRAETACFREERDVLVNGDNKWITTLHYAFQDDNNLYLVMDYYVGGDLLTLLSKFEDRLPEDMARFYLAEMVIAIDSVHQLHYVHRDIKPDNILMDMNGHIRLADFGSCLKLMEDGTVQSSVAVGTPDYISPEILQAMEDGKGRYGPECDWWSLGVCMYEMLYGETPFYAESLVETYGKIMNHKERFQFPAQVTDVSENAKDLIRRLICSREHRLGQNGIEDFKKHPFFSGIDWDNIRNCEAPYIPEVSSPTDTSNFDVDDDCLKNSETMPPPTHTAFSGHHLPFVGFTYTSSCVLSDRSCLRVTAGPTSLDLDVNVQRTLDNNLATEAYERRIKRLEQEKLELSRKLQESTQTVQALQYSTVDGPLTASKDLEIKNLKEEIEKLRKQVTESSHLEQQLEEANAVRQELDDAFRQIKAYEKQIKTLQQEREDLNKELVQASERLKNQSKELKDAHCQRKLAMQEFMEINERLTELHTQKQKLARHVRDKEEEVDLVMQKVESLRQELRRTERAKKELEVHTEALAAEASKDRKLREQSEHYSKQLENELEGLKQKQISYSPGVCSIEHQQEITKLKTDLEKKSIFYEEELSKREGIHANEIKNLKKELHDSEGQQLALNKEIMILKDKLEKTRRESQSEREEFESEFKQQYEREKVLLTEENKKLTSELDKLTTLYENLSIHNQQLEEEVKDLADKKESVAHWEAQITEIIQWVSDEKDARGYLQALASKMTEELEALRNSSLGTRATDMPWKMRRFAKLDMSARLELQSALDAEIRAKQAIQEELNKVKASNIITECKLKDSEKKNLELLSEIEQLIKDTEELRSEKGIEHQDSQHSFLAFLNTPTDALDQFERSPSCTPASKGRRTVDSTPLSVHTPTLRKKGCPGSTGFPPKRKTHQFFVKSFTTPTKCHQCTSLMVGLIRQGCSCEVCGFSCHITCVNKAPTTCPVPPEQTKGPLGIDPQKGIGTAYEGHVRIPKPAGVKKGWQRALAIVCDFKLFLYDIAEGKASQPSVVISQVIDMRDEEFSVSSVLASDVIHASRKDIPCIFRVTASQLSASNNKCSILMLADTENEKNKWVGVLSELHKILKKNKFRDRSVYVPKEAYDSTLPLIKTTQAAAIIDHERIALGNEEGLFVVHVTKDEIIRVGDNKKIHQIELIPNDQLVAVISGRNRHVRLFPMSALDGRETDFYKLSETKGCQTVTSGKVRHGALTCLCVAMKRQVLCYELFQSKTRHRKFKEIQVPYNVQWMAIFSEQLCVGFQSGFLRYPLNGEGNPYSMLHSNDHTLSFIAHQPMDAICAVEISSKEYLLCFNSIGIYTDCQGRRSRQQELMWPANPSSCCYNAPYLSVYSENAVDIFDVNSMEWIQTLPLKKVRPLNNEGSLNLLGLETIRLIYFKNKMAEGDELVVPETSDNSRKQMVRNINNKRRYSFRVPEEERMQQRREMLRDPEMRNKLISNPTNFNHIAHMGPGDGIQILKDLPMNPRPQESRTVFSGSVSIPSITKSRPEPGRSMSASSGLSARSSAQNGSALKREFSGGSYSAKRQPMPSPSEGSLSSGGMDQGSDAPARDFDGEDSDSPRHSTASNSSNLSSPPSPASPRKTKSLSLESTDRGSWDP", "assay": "Inhibition of recombinant human His-tagged MRCKalpha catalytic domain (1 to 473 residues) expressed in baculovirus expression system using serine/threonine-13 peptide as substrate incubated for 60 mins in presence of ATP by Z'-LYTE assay"}, "MAO-B": {"biological_target": "MAO-B (Homo sapiens, UniProt P27338)", "sequence (P27338 whole entry)": "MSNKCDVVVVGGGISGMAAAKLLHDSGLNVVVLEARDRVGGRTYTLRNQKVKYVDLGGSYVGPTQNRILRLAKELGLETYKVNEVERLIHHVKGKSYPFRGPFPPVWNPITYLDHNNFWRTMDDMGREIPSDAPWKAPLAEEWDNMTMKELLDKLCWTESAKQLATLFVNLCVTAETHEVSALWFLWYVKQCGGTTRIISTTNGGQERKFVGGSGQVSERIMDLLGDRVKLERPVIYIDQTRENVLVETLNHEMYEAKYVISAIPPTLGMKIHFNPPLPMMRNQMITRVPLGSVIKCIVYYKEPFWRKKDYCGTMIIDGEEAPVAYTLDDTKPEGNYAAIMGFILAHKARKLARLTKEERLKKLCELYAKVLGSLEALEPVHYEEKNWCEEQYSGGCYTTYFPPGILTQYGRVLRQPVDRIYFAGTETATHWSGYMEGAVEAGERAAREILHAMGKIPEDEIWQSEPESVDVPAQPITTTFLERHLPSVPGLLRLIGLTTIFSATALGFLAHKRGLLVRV", "assay": "Inhibition of recombinant full-length human MAO-B expressed in insect cells at 10 uM using kynuramine as substrate after 60 mins by spectrophotometric analysis relative to control", "details": "probe kynuramine"}, "SRSF protein kinase 3": {"biological_target": "SRSF protein kinase 3 (Homo sapiens, UniProt Q9UPE1)", "assay": "Inhibition of recombinant full length human GST-tagged MSSK1 expressed in baculovirus expression system using serine/threonine-18 peptide as substrate incubated for 60 mins in presence of ATP by Z'-LYTE assay"}, "[6]": {"biological_target": "Nociceptin receptor (Homo sapiens) (UniProt P41146)", "sequence (P41146 whole entry)": "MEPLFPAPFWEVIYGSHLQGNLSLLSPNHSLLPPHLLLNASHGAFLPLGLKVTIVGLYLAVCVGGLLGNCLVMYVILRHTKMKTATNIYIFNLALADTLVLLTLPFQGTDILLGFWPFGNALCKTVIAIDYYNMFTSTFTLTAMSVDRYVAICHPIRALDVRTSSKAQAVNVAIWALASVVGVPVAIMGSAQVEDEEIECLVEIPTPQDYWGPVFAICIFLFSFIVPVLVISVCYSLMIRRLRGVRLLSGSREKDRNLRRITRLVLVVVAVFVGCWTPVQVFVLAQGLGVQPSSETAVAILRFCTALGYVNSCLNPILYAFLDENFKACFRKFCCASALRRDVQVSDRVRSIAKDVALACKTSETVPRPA", "assay": "Displacement of [3H]nociceptin from full length human recombinant ORL1 receptor expressed in HEK293 cells at 10 uM measured after 60 mins by radiometric scintillation analysis relative to control", "assay_type": "cell-based"}, "[7]": {"biological_target": "Serine/threonine-protein kinase Nek2 (Homo sapiens, UniProt P51955)", "assay": "Inhibition of recombinant full length human His-tagged NEK2 expressed in baculovirus expression system using serine/threonine-7 peptide as substrate incubated for 60 mins in presence of ATP by Z'-LYTE assay"}, "[8]": {"biological_target": "Protein kinase C beta type (Homo sapiens, UniProt P05771)", "assay": "Inhibition of recombinant full length human GST-tagged PKCbeta1 expressed in insect expression system using serine/threonine-7 peptide as substrate incubated for 60 mins in presence of ATP by Z'-LYTE assay"}, "[9]": {"biological_target": "High affinity nerve growth factor receptor (Homo sapiens, UniProt P04629)", "assay": "Inhibition of recombinant human His-tagged NTRK1 cytoplasmic domain expressed in baculovirus expression system using FRET-labeled tyr 07 peptide as substrate measured after 1 hr in presence of ATP by Z'-lyte assay"}, "[10]": {"biological_target": "Leucine-rich repeat serine/threonine-protein kinase 2 (Homo sapiens, UniProt Q5S007)", "assay": "Inhibition of recombinant human GST-tagged LRRK2 catalytic domain (970 to 2527 amino acids) expressed in baculovirus expression system using ERM (LRRKtide) peptide as substrate incubated for 60 mins in presence of ATP by Adapta assay"}, "[11]": {"biological_target": "Calcium/calmodulin-dependent protein kinase type IV (Homo sapiens, UniProt Q16566)", "assay": "Inhibition of recombinant full length human full length GST-tagged CAMK4 expressed in Escherichia coli expression system using serine/threonine-13 peptide as substrate incubated for 60 mins in presence of ATP by Z'-LYTE assay"}, "Caspase-9 (Homo sapiens)": {"biological_target": "Caspase-9 (Homo sapiens) (UniProt P55211)", "assay": "Inhibition of recombinant human caspase 9 expressed in Escherichia coli at 10 uM using Ac-LEHD-AFC as substrate after 60 mins by spectrophotometric analysis relative to control"}, "[12]": {"biological_target": "Testis-specific serine/threonine-protein kinase 2 (Homo sapiens, UniProt Q96PF2)", "sequence (Q96PF2 whole entry)": "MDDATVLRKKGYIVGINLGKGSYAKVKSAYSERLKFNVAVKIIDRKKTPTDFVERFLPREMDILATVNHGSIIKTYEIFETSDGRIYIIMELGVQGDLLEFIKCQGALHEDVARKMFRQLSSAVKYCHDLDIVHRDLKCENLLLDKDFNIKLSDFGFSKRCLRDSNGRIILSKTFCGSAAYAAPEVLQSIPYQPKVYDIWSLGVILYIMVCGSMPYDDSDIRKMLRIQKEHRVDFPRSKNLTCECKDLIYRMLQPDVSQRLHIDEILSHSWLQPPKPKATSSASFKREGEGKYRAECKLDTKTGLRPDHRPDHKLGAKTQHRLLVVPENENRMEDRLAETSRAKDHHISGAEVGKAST", "assay": "Inhibition of recombinant full length human His-tagged STK22B expressed in baculovirus expression system using serine/threonine-04 peptide as substrate incubated for 60 mins in presence of ATP by Z'-LYTE assay"}, "[13]": {"biological_target": "B2 bradykinin receptor (Homo sapiens) (UniProt P30411)", "assay": "Displacement of [3H]bradykinin from recombinant full length human recombinant bradykinin B2 receptor expressed in Chem-1 cells at 10 uM measured after 60 mins by radiometric scintillation analysis relative to control", "assay_type": "cell-based"}, "[14]": {"biological_target": "Casein kinase I isoform gamma-3 (Homo sapiens, UniProt Q9Y6M4)", "sequence (Q9Y6M4 whole entry, canonical isoform)": "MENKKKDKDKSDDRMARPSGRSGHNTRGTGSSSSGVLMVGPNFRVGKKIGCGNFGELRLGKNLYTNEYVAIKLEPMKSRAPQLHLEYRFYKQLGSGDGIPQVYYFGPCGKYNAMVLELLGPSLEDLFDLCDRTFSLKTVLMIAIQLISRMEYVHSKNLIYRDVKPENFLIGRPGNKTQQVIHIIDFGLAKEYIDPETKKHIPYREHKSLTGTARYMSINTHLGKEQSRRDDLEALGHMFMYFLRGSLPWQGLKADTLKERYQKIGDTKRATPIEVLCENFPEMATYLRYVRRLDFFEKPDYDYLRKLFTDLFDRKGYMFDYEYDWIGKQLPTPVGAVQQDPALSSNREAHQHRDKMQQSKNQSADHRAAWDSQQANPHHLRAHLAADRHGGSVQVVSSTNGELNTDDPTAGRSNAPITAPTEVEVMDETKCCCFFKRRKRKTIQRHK", "assay": "Inhibition of recombinant human full-length GST-tagged CSNK1G3 expressed in baculovirus expression system using FRET-labeled Ser/Thr 05 peptide as substrate measured after 1 hr in presence of ATP by Z'-lyte assay"}, "[15]": {"biological_target": "Prostaglandin F2-alpha receptor (Homo sapiens) (UniProt P43088)", "assay": "Displacement of [3H]PGF2alpha from full length human recombinant prostanoid FP receptor expressed in HEK293 cells at 10 uM measured after 60 mins by radiometric scintillation analysis relative to control", "assay_type": "cell-based"}, "[16]": {"biological_target": "Progesterone receptor (Homo sapiens) (UniProt P06401)", "assay": "Inhibition of human progesterone B receptor at 10 uM relative to control"}, "Ephrin type-B receptor 4": {"biological_target": "Ephrin type-B receptor 4 (Homo sapiens, UniProt P54760)", "assay": "Inhibition of recombinant human His-tagged EPHB4 (561 to 987 residues) catalytic domain expressed in baculovirus expression system using tyrosine-01 peptide as substrate incubated for 60 mins in presence of ATP by Z'-LYTE assay"}, "[17]": {"biological_target": "Cholecystokinin receptor type A (Homo sapiens) (UniProt P32238)", "assay": "Displacement of [3H]L-364,718 from recombinant full length human recombinant CCK1 expressed in 1321-N1 cells at 10 uM measured after 60 mins by radiometric scintillation analysis relative to control", "assay_type": "cell-based"}, "CDK9/cyclin T1": {"biological_target": "CDK9/cyclin T1 (Homo sapiens, UniProt P50750)", "sequence (O60563 whole entry)": "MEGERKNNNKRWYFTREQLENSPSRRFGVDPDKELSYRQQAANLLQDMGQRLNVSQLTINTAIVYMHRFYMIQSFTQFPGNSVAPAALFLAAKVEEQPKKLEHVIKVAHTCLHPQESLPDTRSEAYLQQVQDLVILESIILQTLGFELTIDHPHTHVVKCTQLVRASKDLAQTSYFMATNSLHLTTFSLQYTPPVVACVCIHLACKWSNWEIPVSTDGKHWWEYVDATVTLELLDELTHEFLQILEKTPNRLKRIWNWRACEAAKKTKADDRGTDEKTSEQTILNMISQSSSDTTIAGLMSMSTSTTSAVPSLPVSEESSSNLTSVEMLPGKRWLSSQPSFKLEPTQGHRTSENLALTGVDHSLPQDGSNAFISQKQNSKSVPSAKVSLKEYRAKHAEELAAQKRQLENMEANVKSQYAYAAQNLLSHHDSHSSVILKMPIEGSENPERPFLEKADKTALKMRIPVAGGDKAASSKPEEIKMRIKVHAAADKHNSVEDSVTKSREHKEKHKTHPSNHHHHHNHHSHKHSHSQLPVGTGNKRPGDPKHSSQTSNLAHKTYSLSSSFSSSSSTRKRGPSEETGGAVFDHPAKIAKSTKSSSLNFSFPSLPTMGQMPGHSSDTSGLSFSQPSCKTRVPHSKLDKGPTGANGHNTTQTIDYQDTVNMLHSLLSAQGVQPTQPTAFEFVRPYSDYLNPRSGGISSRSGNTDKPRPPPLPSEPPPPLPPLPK", "sequence (P50750 whole entry)": "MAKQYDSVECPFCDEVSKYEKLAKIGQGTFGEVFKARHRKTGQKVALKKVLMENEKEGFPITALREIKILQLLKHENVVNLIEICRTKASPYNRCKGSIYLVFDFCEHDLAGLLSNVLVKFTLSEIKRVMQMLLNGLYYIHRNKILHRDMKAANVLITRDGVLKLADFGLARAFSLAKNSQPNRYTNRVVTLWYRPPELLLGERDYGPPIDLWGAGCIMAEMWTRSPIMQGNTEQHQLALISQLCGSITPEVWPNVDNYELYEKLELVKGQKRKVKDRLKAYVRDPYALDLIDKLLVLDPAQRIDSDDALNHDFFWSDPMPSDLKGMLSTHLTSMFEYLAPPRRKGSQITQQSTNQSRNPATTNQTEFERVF", "assay": "Inhibition of recombinant full length human His-tagged CDK9/CyclinT1 expressed in baculovirus expression system using CDK7/9tide peptide as substrate incubated for 60 mins in presence of ATP by Adapta assay"}, "[18]": {"biological_target": "Tyrosine-protein kinase BTK (Homo sapiens, UniProt Q06187)", "assay": "Inhibition of recombinant full length human His-tagged BTK expressed in baculovirus expression system using tyrosine-2 peptide as substrate incubated for 60 mins in presence of ATP by Z'-LYTE assay"}},
  "data": [
    {"molecule": "C[C@@H]1C[C@H]1C(=O)N1CCN(c2cnc(C#N)c(-c3cnn(C)c3)n2)C[C@H]1C", "values": [
      {"measurement": "inhibition", "setting": "[1]", "value": -3, "unit": "%"},
      {"measurement": "inhibition", "setting": "Rattus norvegicus", "value": 18, "unit": "%"},
      {"measurement": "IC50", "setting": "[2]", "value": "> 100", "unit": "µM"},
      {"measurement": "IC50", "setting": "Angiopoietin-1 receptor", "value": "> 100", "unit": "µM"},
      {"measurement": "IC50", "setting": "Cytochrome P450 3A4", "value": "> 50", "unit": "µM"},
      {"measurement": "IC50", "setting": "[3]", "value": 26.1, "unit": "µM"},
      {"measurement": "IC50", "setting": "[4]", "value": "> 100", "unit": "µM"},
      {"measurement": "IC50", "setting": "[5]", "value": "> 100", "unit": "µM"},
      {"measurement": "inhibition at 1 h, 10 µM", "setting": "MAO-B", "value": 11, "unit": "%"},
      {"measurement": "IC50", "setting": "SRSF protein kinase 3", "value": "> 100", "unit": "µM"},
      {"measurement": "inhibition", "setting": "[6]", "value": -1, "unit": "%"},
      {"measurement": "IC50", "setting": "[7]", "value": "> 100", "unit": "µM"},
      {"measurement": "IC50", "setting": "[8]", "value": "> 100", "unit": "µM"},
      {"measurement": "IC50", "setting": "[9]", "value": "> 100", "unit": "µM"},
      {"measurement": "IC50", "setting": "[10]", "value": "> 100", "unit": "µM"},
      {"measurement": "IC50", "setting": "[11]", "value": "> 100", "unit": "µM"},
      {"measurement": "inhibition", "setting": "Caspase-9 (Homo sapiens)", "value": 2, "unit": "%"},
      {"measurement": "IC50", "setting": "[12]", "value": "> 100", "unit": "µM"},
      {"measurement": "inhibition", "setting": "[13]", "value": 6, "unit": "%"},
      {"measurement": "IC50", "setting": "[14]", "value": "> 100", "unit": "µM"},
      {"measurement": "inhibition", "setting": "[15]", "value": 9, "unit": "%"},
      {"measurement": "inhibition", "setting": "[16]", "value": 0, "unit": "%"},
      {"measurement": "IC50", "setting": "Ephrin type-B receptor 4", "value": "> 100", "unit": "µM"},
      {"measurement": "inhibition", "setting": "[17]", "value": 3, "unit": "%"},
      {"measurement": "IC50", "setting": "CDK9/cyclin T1", "value": "> 100", "unit": "µM"},
      {"measurement": "IC50", "setting": "[18]", "value": 39.6, "unit": "µM"}
    ]}
  ]
}
